Measured values as given in patent US20230012560A1, “HEPATITIS B ANTIVIRAL AGENTS” (TAIGEN BIOTECHNOLOGY CO., LTD., priority 2019, published 2023).
pEC50: −log10 of the molar value.

System: HBV (HepAD38 cells)
Experiment: Real-Time PCR Assay (extracellular HBV DNA from HepAD38 culture supernatants)
Type: cell-based
Details: Hepatitis B virus, 120 h, compound treatment for 5 days without tetracycline, extracellular DNA in culture supernatant quantified by real-time PCR, read-out: EC50 (50% effective concentration)
Method: HepAD38 cells were seeded and cultured on 96-well plates. After incubation for 2 days, cells were fed with compound-containing media without tetracycline. After compound treatment for 5 days, culture supernatants were collected. Extracellular DNA was then extracted using LabTurbo DNA mini kit, and quantified by real-time PCR.
Real-time PCR was performed using an ABI QuantStudio 3 system in a 96-well optical plate format. The PCR mixture containing forward primer (5′-[…]-3′) (SEQ ID NO.1), reverse primer (5′-GGTGAGTGATTGGAGGTTG-3′) (SEQ ID NO.2) and Luna Universal qPCR Master Mix in a final volume of 24 μl was incubated at 95° C. for 10 min followed by 45 cycle of incubation at 95° C. for 10 s and 60° C. for 10 s. Regression analysis was performed using GraphPad Prism 5 to calculate the 50% effective concentration (EC50) values.

SMILES	pEC50
CC[C@@H](C)NC(=O)C(=O)N1CCC(NS(=O)(=O)c2cn(C)c(C(=O)Nc3cc(F)c(F)c(F)c3)c2F)CC1 [Compound 75]	> 7.00
CCNC(=O)C(=O)N1CCC(NS(=O)(=O)c2cn(C)c(C(=O)Nc3cc(F)c(F)c(F)c3)c2Cl)CC1 [Compound 76]	> 7.00
O=C(NC1CC1)C(=O)N1CCC(NS(=O)(=O)c2c(F)c(C(=O)Nc3cc(F)c(F)c(F)c3)n3c2CCC3)CC1 [Compound 77]	> 7.00
CCNC(=O)C(=O)N1CCC(NS(=O)(=O)c2c(Cl)c(C(=O)Nc3cc(F)c(F)c(F)c3)n3c2CCC3)CC1 [Compound 78]	> 7.00
CCNC(=O)C(=O)N1CCC(NS(=O)(=O)c2c(C)c(C(=O)Nc3cc(F)c(F)c(F)c3)n3c2CCC3)CC1 [Compound 79]	6.00 to 6.52
CCNC(=O)C(=O)N1CCC(NS(=O)(=O)c2c(F)c(C(=O)Nc3ccc(F)c(F)c3)n(C)c2C)CC1 [Compound 80]	> 7.00
CCNC(=O)C(=O)N1CCC(NS(=O)(=O)c2c(F)c(C(=O)Nc3cc(F)c(F)c(F)c3)n(C)c2Br)CC1 [Compound 81]	> 7.00
CCNC(=O)C(=O)N1CCC(C)(NS(=O)(=O)c2cn(C)c(C(=O)Nc3cc(F)c(F)c(F)c3)c2F)CC1 [Compound 82]	6.52 to 7.00
CCNC(=O)C(=O)N1CCC(NS(=O)(=O)c2cn(C)c(C(=O)Nc3ccc(F)c(F)c3)c2F)C(C)C1 (centres unmarked) [Compound 83]	> 7.00
CCNC(=O)C(=O)N1CCC(NS(=O)(=O)c2cn(C)c(C(=O)Nc3cc(F)c(F)c(F)c3)c2Cl)CC1C (centres unmarked) [Compound 84]	> 7.00
CCNC(=O)C(=O)N1CCC2(NS(=O)(=O)c3cn(C)c(C(=O)Nc4cc(F)c(F)c(F)c4)c3F)CC2C1 (centres unmarked) [Compound 85]	> 7.00
CCNC(=O)C(=O)N1CCC(NS(=O)(=O)c2cn(C)c(C(=O)Nc3cc(F)c(F)c(F)c3)c2F)C(C)(C)C1 (centres unmarked) [Compound 86]	> 7.00
CCNC(=O)C(=O)N1CCC(NS(=O)(=O)c2cn(C)c(C(=O)Nc3cc(F)c(F)c(F)c3)c2Cl)C2(CC2)C1 (centres unmarked) [Compound 87]	> 7.00
CCNC(=O)C(=O)N1CCC(NS(=O)(=O)c2cn(C)c(C(=O)Nc3cc(F)c(F)c(F)c3)c2F)CC12CC2 (centres unmarked) [Compound 88]	> 7.00
CCNC(=O)C(=O)N1CCC(NS(=O)(=O)c2cn(/C=C/F)c(C(=O)Nc3cc(F)cc(Cl)c3)c2F)CC1 [Compound 90]	> 7.00
Cn1cc(S(=O)(=O)NC2CCN(C(=O)C(=O)NC3COC3)CC2(F)F)c(F)c1C(=O)Nc1ccc(F)c(F)c1 (centres unmarked) [Compound 92]	> 7.00
Cn1cc(S(=O)(=O)NC2CCN(C(=O)C(=O)NC3(C)CC3)CC2(F)F)c(Cl)c1C(=O)Nc1cc(F)c(F)c(F)c1 (centres unmarked) [Compound 93]	> 7.00
CCNC(=O)C(=O)N1CC[C@@H](NS(=O)(=O)c2cn(C)c(C(=O)Nc3ccc(F)c(F)c3)c2F)C(F)(F)C1 [Compound 94]	> 7.00
CCNC(=O)C(=O)N1CC[C@@H](NS(=O)(=O)c2cn(C)c(C(=O)Nc3ccc(F)c(F)c3)c2F)[C@@H](F)C1 [Compound 96]	> 7.00
CC(C)NC(=O)C(=O)N1CC[C@@H](NS(=O)(=O)c2cn(C)c(C(=O)Nc3cc(F)c(F)c(F)c3)c2F)[C@@H](C)C1 [Compound 97]	> 7.00
CCCNC(=O)C(=O)N1CC[C@@H](NS(=O)(=O)c2cn(C)c(C(=O)Nc3cc(F)c(F)c(F)c3)c2F)C(F)(F)C1 [Compound 98]	> 7.00
CCNC(=O)C(=O)N1CC[C@@H](NS(=O)(=O)c2cn(C)c(C(=O)Nc3ccc(F)c(F)c3)c2F)C(C)(C)C1 [Compound 99]	> 7.00
CNC(=O)C(=O)N1C[C@@H]2[C@H](C1)[C@@H]2NS(=O)(=O)c1cn(C)c(C(=O)Nc2cc(F)c(F)c(F)c2)c1F [Compound 100]	> 7.00
